Test results taken from article PMC8779140 (Pharmaceutics, 2022).
Entries after “also recorded” stand apart in the source; their conditions may differ. Read-outs that look alike come from different tables or passages of the source. *1 amine or outer side, *2 acyl side, *3 side chain or, on linkers, in order; H or OH if unused. Where a SMILES comes first, the peptide text is derived from it. Bridges are numbered along the chain shown (N, C = ends). Roman numbers before positions name the chains, in order. [ ]: non-standard residue; d: D form. Actinocin(9to1) = Cc1c2oc3c(C)ccc(C(=O)[*:1])c3nc-2c(C(=O)[*:2])c(N)c1=O; NMeV = CN[C@H](C(=O)O)C(C)C; Sar = CNCC(=O)O

Tests used:
SARS-CoV-2 3CL^pro = SARS-CoV-2 3CL^pro (Severe acute respiratory syndrome coronavirus 2, UniProt P0DTD1); assay: biochemical
SARS-CoV-2 PL^pro = biological target: T1, SARS-CoV-2 PL^pro (Severe acute respiratory syndrome coronavirus 2, UniProt P0DTD1); assay: biochemical
T1 construct: The synthetic gene of SARS-CoV-2 PL^pro was cloned into the pET16b vector; made in house; host or cells: E. coli BL21(DE3)

SARS-CoV-2 = assay: Plaque reduction assay in Vero E6 cells; format: cell-based; conditions: 120 h
Vero E6 cells [1] = assay: Cytotoxicity seen in the plaque reduction assay; conditions: Figure 7b, seen at 0.2 μM
human TMPRSS2 = biological target: T2, human TMPRSS2 (Homo sapiens, UniProt O15393); assay: Inhibition assay of human TMPRSS2 (fluorogenic peptide); format: biochemical
T2 construct: the purified MBP-tagged TMPRSS2 (residues 256-492) activity; made in house; host or cells: E. coli BL21 (DE3)
Procedure: Cloning of TMPRSS2 was performed as previously reported. The synthetic gene encoding the catalytic domain of human TMPRSS2 (residues 256–492) was cloned into the pMAL-c5X vector (New England Biolabs). This plasmid was transformed into E. coli BL21 (DE3) for protein overexpression. Overnight culture of a single transformant (5 mL) was added to 500 mL of fresh LB medium containing […] ampicillin. The cells were grown to an OD600 of 0.6 and added with 1 mM isopropyl-β-thiogalactopyranoside for further 20 h incubation at 16 °C for recombinant protein production. The cells were harvested by centrifugation at 7000× g for 15 min.
Purification of the maltose-binding protein (MBP)-tagged TMPRSS2 was conducted at 4 °C. The cell paste obtained from the cell culture (1 L) was suspended in a lysis buffer (40 mL) containing 25 mM Tris-HCl (pH 7.5) and 150 mM NaCl. To disrupt the cells, a French press was used. The cell-free extract was loaded onto a 10 mL amylose resin column (New England Biolabs, Ipswich, MA, USA) equilibrated with the lysis buffer. The column was washed with 10 column volumes of lysis buffer, and then the MBP-tagged TMPRSS2 bound to the amylose resin was eluted with the elution buffer (25 mM Tris, pH 7.5, 150 mM NaCl, and 10 mM maltose).
For assaying the inhibition of the purified MBP-tagged TMPRSS2 (residues 256-492) activity, a fluorogenic peptide substrate, Boc-Gln-Ala-Arg-AMC, was used with excitation at 355 nm and emission at 460 nm. The enzyme (0.22 μM) was preincubated in the presence or absence of various concentrations of inhibitors in 20 mM HEPES and pH 7.5 assay buffer for 10 min in black 96-well immuno plates (Thermo Scientific). Next, the fluorescent substrate (10 μM) was added and incubated for 60 min at room temperature. The reactions were monitored by using a fluorescence plate reader (Fluoroskan Ascent, Thermo Labsystems, Franklin, MA, USA). The initial velocities of the inhibited reactions were plotted against the different inhibitor concentrations to yield the IC50 value by fitting with the equation A(I) = A(0) × {1 − [I/(I + IC50)]}. In this equation, A(I) is the enzyme activity with inhibitor concentration I, and A(0) is the enzyme activity without an inhibitor. For each data point, the measurements were repeated thrice to yield the mean and standard deviation.

Vero E6 cells [2] = system: Vero E6 cells
[3] = cited from earlier work
[4] = biological target: spike RBD–ACE2 interaction (wild-type) (Severe acute respiratory syndrome coronavirus 2, UniProt P0DTC2); format: cell-based, SARS-CoV-2; conditions: RBD attachment assay
[5] = 75 nM PL^pro, 10 μM z-Arg-Leu-Arg-Gly-Gly-AMC, pH 7.5, read-out: IC50
[6] = 0.22 μM MBP-tagged TMPRSS2 (residues 256-492), 10 μM Boc-Gln-Ala-Arg-AMC, read-out: IC50

T2 sequence (O15393 256-492): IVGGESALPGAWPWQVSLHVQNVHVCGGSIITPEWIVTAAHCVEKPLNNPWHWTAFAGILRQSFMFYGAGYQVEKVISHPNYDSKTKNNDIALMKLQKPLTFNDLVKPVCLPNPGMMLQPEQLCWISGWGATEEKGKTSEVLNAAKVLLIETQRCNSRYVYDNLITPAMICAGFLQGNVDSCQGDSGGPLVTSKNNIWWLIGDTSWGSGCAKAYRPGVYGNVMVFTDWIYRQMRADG

## O=C(Nc1ccc([N+](=O)[O-])cc1Cl)c1cc(Cl)ccc1O [Niclosamide]
SARS-CoV-2 3CL^pro
  IC50: 18.7 ± 0.9 µM
SARS-CoV-2 PL^pro
  IC50: 16.6 ± 1.8 µM
SARS-CoV-2; 0.2 μM
  antiviral activity in plaque reduction assay: demonstrated antiviral property
Vero E6 cells [1]
  cytotoxicity: cells appeared broken into tiny particles, revealing the cytotoxicity; also recorded: high cytotoxicity

## CN(C)C/C=C/C(=O)Nc1cc2c(Nc3ccc(F)c(Cl)c3)ncnc2cc1O[C@H]1CCOC1 [Afatinib]
Human TMPRSS2
  IC50: 28.4 ± 1.5 µM
SARS-CoV-2 PL^pro; [5]
  IC50: 45.6 ± 4.2 µM

## CCN(CC)CCCC(C)Nc1c2ccc(Cl)cc2nc2ccc(OC)cc12 (centres unmarked) [Mepacrine]
Human TMPRSS2; [6]
  IC50: 29.9 ± 3.7 µM
SARS-CoV-2 PL^pro
  IC50: 4.4 ± 0.9 µM

## Cc1c2oc3c(C)ccc(C(=O)N[C@@H]4C(=O)N[C@H](C(C)C)C(=O)N5CCC[C@H]5C(=O)N(C)CC(=O)N(C)[C@@H](C(C)C)C(=O)O[C@@H]4C)c3nc-2c(C(=O)N[C@@H]2C(=O)N[C@H](C(C)C)C(=O)N3CCC[C@H]3C(=O)N(C)CC(=O)N(C)[C@@H](C(C)C)C(=O)O[C@@H]2C)c(N)c1=O [Dactinomycin] (I: T[dV]P[Sar][NMeV] / II: T[dV]P[Sar][NMeV]; ester I:1-I:C, II:1-II:C; linker I:N-II:N via Actinocin(9to1))
SARS-CoV-2 3CL^pro; 35 nM 3CL^pro, 6 μM fluorogenic substrate, pH 7.0, read-out: IC50
  IC50: 37.6 ± 2.8 µM
SARS-CoV-2 PL^pro; [5]
  IC50: 14.7 ± 2.6 µM

## COc1cccc2c1C(=O)c1c(O)c3c(c(O)c1C2=O)C[C@@](O)(C(=O)CO)C[C@@H]3O[C@H]1C[C@H](N)[C@H](O)[C@H](C)O1 [Doxorubicin]
Human TMPRSS2; [6]
  IC50: 8.2 ± 1.6 µM
SARS-CoV-2 PL^pro
  IC50: 4.6 ± 0.8 µM
SARS-CoV-2; 10 μM
  antiviral activity in plaque reduction assay: did not effectively inhibit the replication and infection of the virus

## CC/C(=C(\c1ccccc1)c1ccc(OCCN(C)C)cc1)c1ccccc1 [Tamoxifen]
Human TMPRSS2
  IC50: 21.4 ± 1.6 µM
SARS-CoV-2; 10 μM
  antiviral activity in plaque reduction assay: robustly protected cells from the viral infection
Vero E6 cells [2]
  cytotoxicity: without apparent cytotoxicity
[3]
  half-life: 120 to 170 h

## CO[C@H]1C[C@@H]2CC[C@@H](C)[C@@](O)(O2)C(=O)C(=O)N2CCCC[C@H]2C(=O)O[C@H]([C@H](C)C[C@@H]2CC[C@@H](O)[C@H](OC)C2)CC(=O)[C@H](C)/C=C(\C)[C@@H](O)[C@@H](OC)C(=O)[C@H](C)C[C@H](C)/C=C/C=C/C=C/1C [Rapamycin]
Human TMPRSS2; IC50 threshold 50 μM
  inhibition of TMPRSS2 (in words): did not inhibit
SARS-CoV-2 PL^pro; [5]
  IC50: 31 ± 2.4 µM
[4]
  inhibition of RBD–ACE2 interplay (in words): could not efficiently inhibit the interplay between the RBD and ACE2
SARS-CoV-2; 20 μM
  antiviral activity in plaque reduction assay: did not exert a significant effect on the inhibition of viral infection

## CCOc1cc2ncc(C#N)c(Nc3ccc(OCc4ccccn4)c(Cl)c3)c2cc1NC(=O)/C=C/CN(C)C [Neratinib]
Human TMPRSS2; [6]
  IC50: 25.9 ± 3.2 µM
SARS-CoV-2 PL^pro; [5]
  IC50: 11.6 ± 2.9 µM
